# From patent publication US8765728B2, “[1,5]-diazocin derivatives” (MelliTech, priority 2009, dated 2014)
# Test system: Min6 cell
# Assay: Insulin secretion response of beta cell line to formula I compounds (insulin ELISA)
# Assay type: cell-based
# Details: rank according to % increase versus control at most effective dose
# Experimental: The secretory responses of beta cell lines to glucose were tested as described in Merglen et al. Endocrinology, (2004) 145(2):667-78.
# Briefly, after incubation with compounds from formula I or control vehicle, cells were maintained for 2 hours in glucose-free culture medium. The cells were then washed twice and preincubated for 30 minutes at 37° C. in glucose-free Krebs-Ringer bicarbonate HEPES buffer (KRBH: 135 mM NaCl, 3.6 mM KCl, 5 mM NaHCO3, 0.5 mM NaH2PO4, 0.5 mM MgCl2, 1.5 mM CaCl2, and 10 mM HEPES, pH 7.4). BSA (0.1%) was added as an insulin carrier. Cells were subsequently washed with glucose-free KRBH and then incubated for 30 minutes at 37° C. in KRBH containing different concentrations of glucose. The reaction was stopped by placing the plates on ice; supernatants were collected to determine insulin secretion and cells were used for intracellular insulin content following acid-ethanol extraction. Insulin was measured by ELISA (Linco) according to the manufacturer's instructions.
row,Compound,Insulin secretion (Min6 cell) Range 1 to 5
1,"COc1ccc2c(c1)CN(C1CC1)C(=O)CCN2C[C@@H](O)COc1ccc(Cl)cc1 [Compound 89, (R)-1-(3-(4-chlorophenoxy)-2-hydroxypropyl)-5-cyclopropyl-8-methoxy-2,3,5,6-tetrahydrobenzo[b][1,5]diazocin-4(1H)-one]",1 (1: 90-110% of control)
2,"O=C1CCN(C[C@H](O)COc2cccc(F)c2)c2ccc(OC(F)F)cc2CN1C1CC1 [Compound 118, (S)-5-cyclopropyl-8-(difluoromethoxy)-1-(3-(3-fluorophenoxy)-2-hydroxypropyl)-2,3,5,6-tetrahydrobenzo[b][1,5]diazocin-4(1H)-one]",2 (2: 110-120% of control)
3,"O=C1CCN(CC(O)c2ccc(OC(F)F)cc2)c2ccc(Cl)cc2CN1C1CC1 (stereo not drawn) [Compound 148, 8-chloro-5-cyclopropyl-1-(2-(4-(difluoromethoxy)phenyl)-2-hydroxyethyl)-2,3,5,6-tetrahydrobenzo[b][1,5]diazocin-4(1H)-one]",1 (1: 90-110% of control)
4,"O=C(CN1CCC(=O)N(C2CC2)Cc2cc(F)ccc21)c1ccccc1 [Compound 35, 5-cyclopropyl-8-fluoro-1-(2-oxo-2-phenylethyl)-2,3,5,6-tetrahydrobenzo[b][1,5]diazocin-4(1H)-one]",1 (1: 90-110% of control)
5,"COc1ccccc1C(=O)CN1CCC(=O)N(C2CC2)Cc2cc(F)ccc21 [Compound 36, 5-cyclopropyl-8-fluoro-1-(2-(2-methoxyphenyl)-2-oxoethyl)-2,3,5,6-tetrahydrobenzo[b][1,5]diazocin-4(1H)-one]",2 (2: 110-120% of control)
6,"COc1ccc2c(c1)CN(C1CC1)C(=O)CCN2CC(O)c1ccc(N2CCCC2)cc1 (stereo not drawn) [Compound 28, 5-cyclopropyl-1-(2-hydroxy-2-(4-(pyrrolidin-1-yl)phenyl)ethyl)-8-methoxy-2,3,5,6-tetrahydrobenzo[b][1,5]diazocin-4(1H)-one]",3 (3: 120-140% of control)
7,"O=C1CCN(CC(O)c2ccc(OC(F)F)cc2)c2ccc3c(c2CN1C1CC1)OCCO3 (stereo not drawn) [Compound 149, 11-cyclopropyl-7-(2-(4-(difluoromethoxy)phenyl)-2-hydroxyethyl)-2,3,8,9,11,12-hexahydro-[1,4]dioxino[2′,3′:3,4]benzo[1,2-b][1,5]diazocin-10(7H)-one]",3 (3: 120-140% of control)
8,"COc1ccc2c(c1)CN(C1CC1)C(=O)CCN2C(=O)c1ncoc1-c1ccccc1 [Compound 98, 5-cyclopropyl-8-methoxy-1-(5-phenyloxazole-4-carbonyl)-2,3,5,6-tetrahydrobenzo[b][1,5]diazocin-4(1H)-one]",2 (2: 110-120% of control)
9,"CC(C)(C)OCC(O)CN1CCC(=O)N(C2CC2)Cc2cc3c(cc21)OCO3 (stereo not drawn) [Compound 162, 5-(3-tert-butoxy-2-hydroxypropyl)-9-cyclopropyl-6,7,9,10-tetrahydro[1,3]dioxolo[4,5-i][1,5]benzodiazocin-8(5H)-one]",1 (1: 90-110% of control)
10,"COc1ccc2c(c1)CN(C1CC1)C(=O)CCN2CC(=O)c1ccc(F)cc1 [Compound 5, 5-cyclopropyl-1-(2-(4-fluorophenyl)-2-oxoethyl)-8-methoxy-2,3,5,6-tetrahydrobenzo[b][1,5]diazocin-4(1H)-one]",3 (3: 120-140% of control)
11,"O=C(Cc1ccc(F)cc1)N1CCC(=O)N(C2CC2)Cc2cc(F)ccc21 [Compound 71, 5-cyclopropyl-8-fluoro-1-(2-(4-fluorophenyl)acetyl)-2,3,5,6-tetrahydrobenzo[b][1,5]diazocin-4(1H)-one]",4 (4: 140-170% of control)
12,"O=C1CCN(CC(O)COc2ccccc2)c2ccc(F)cc2CN1C1CC1 (stereo not drawn) [Compound 52, 5-cyclopropyl-8-fluoro-1-(2-hydroxy-3-phenoxypropyl)-2,3,5,6-tetrahydrobenzo[b][1,5]diazocin-4(1H)-one]",1 (1: 90-110% of control)
